Results from article PMC11343938, “Micro-scale screening of genetically modified Fusarium fujikuroi strain extends the apicidin family” (Natural Products and Bioprospecting, 2024).
Read-outs that look alike come from different tables or passages of the source. Square brackets hold non-standard residues; d marks the D form. Peptide text beside a SMILES is read from it. Trp(1-OMe) = COn1cc(C[C@H](N)C(=O)O)c2ccccc21; Asu = N[C@@H](CCCCCC(=O)O)C(=O)O; dPip = O=C(O)[C@H]1CCCCN1

Key:
HDAC3/NcoR2 = target: T1, HDAC3/NcoR2 (Homo sapiens, UniProt O15379); test: In vitro HDAC inhibition assay (ZMAL substrate), HDAC3; assay type: biochemical; conditions: mean ± SD of at least two independent experiments
T1 construct: purchased BPS Bioscience 50003
Experimental: (§1) In vitro inhibitory activity against HDAC1-3 and 6 was determined using our previously published assay protocol. […] Next, the total assay volume (50 µL, max. 1% DMSO) was incubated at 37 °C for 90 min. Subsequently, 50 µL trypsin solution (0.4 mg/mL trypsin in buffer: 50 mM Tris- HCl, pH 8.0, 100 mM NaCl) was added, followed by additional 30 min of incubation at 37 °C. Fluorescence (excitation: 355 nm, emission: 460 nm) was measured using a FLUOstar OPTIMA microplate reader (BMG LABTECH). The IC50 values were determined by generating normalized dose–response curves using the build-in "log(inhibitor) vs. response (three parameters)" equation provided by GraphPad Prism (GraphPad Prism 9.0, San Diego, USA). Compounds were tested in duplicates, reported mean IC50 values, including standard deviation, are calculated from at least two independent experiments.

HDAC2 = target: T2, HDAC2 (Homo sapiens, UniProt Q92769); test: biochemical; conditions: mean ± SD of at least two independent experiments
T2 construct: purchased BPS Bioscience 50052
Experimental: as §1, with “USA).” for “USA). Compounds were tested in duplicates, reported mean IC50 values, including standard deviation, are calculated from at least two independent experiments.”

P. falciparum NF54 = test: In vitro antiparasitic activity against P. falciparum; assay type: cell-based; conditions: Plasmodium falciparum, P. falciparum NF54, intraerythrocytic forms, read-out: IC50 inhibition of P. falciparum growth
Experimental: (§2) Furthermore, the whole set of isolated compounds was tested in vitro against T. brucei rhodesiense (bloodstream trypomastigotes) and P. falciparum (intraerythrocytic forms). All assays were performed using validated protocols at the Swiss TPH [34].

HepG2 = conditions: human liver carcinoma cell line HepG2; cited from earlier work
HDAC1 = target: T3, HDAC1 (Homo sapiens, UniProt Q13547); test: In vitro HDAC inhibition assay (ZMAL substrate), HDAC1; assay type: biochemical
T3 construct: purchased BPS Bioscience 50051
Experimental: as §1

Plasmodium falciparum = conditions: cited from earlier work
HDAC6 = target: T4, HDAC6 (Homo sapiens, UniProt Q9UBN7); test: In vitro HDAC inhibition assay (ZMAL substrate), HDAC6; assay type: biochemical
T4 construct: purchased BPS Bioscience 50006
T4 sequence (Q9UBN7 1-1215): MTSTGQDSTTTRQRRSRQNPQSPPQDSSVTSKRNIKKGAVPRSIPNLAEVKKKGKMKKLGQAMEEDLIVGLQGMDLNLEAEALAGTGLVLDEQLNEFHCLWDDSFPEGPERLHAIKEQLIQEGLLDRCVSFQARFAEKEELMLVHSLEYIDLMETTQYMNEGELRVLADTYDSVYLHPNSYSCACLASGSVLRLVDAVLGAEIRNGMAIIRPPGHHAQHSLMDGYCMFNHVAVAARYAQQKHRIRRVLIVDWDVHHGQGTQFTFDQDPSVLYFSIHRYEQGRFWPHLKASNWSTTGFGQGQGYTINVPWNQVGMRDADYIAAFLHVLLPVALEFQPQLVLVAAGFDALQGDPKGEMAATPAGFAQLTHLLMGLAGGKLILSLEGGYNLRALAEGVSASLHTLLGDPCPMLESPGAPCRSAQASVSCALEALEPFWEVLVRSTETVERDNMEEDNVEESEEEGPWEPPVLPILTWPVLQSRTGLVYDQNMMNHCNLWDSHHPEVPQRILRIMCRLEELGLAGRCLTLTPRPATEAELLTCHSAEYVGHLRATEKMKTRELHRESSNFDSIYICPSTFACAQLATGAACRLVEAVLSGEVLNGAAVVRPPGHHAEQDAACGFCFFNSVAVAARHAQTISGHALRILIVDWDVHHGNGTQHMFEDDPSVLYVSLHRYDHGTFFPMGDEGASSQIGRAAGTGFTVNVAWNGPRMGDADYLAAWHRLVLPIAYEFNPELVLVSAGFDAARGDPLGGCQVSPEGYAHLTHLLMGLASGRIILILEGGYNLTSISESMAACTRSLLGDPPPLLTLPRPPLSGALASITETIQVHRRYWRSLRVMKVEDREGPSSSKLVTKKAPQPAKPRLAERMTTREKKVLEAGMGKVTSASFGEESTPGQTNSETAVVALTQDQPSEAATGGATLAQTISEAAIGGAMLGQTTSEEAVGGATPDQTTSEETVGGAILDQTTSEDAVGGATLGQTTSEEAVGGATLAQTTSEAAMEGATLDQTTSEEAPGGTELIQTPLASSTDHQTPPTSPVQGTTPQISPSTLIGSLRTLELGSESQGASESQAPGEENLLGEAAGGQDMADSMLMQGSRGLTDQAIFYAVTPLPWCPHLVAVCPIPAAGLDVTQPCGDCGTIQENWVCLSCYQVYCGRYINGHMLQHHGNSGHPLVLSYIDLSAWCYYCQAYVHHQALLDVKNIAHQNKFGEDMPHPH
Experimental: as §1

in vitro [1] = conditions: rat
A549 (CCL-185) = conditions: resazurin assay, 24 h incubation, 0.01-100 µM tested
HepG2 (HB-8065) = conditions: resazurin assay, 24 h incubation, 0.01-100 µM tested
[2] = test system: Trypanosoma brucei rhodesiense STIB 900; test: In vitro antiparasitic activity against T. brucei rhodesiense; assay type: cell-based; conditions: bloodstream trypomastigotes
Experimental: as §2

in vitro [3] = conditions: human
[4] = mean ± SD of at least two independent experiments, [b] < 30% inhibition at the stated concentration, read-out: IC50 HDAC1
[5] = mean ± SD of at least two independent experiments, [b] < 30% inhibition at the stated concentration, read-out: IC50 HDAC6

T3 sequence (Q13547 whole entry): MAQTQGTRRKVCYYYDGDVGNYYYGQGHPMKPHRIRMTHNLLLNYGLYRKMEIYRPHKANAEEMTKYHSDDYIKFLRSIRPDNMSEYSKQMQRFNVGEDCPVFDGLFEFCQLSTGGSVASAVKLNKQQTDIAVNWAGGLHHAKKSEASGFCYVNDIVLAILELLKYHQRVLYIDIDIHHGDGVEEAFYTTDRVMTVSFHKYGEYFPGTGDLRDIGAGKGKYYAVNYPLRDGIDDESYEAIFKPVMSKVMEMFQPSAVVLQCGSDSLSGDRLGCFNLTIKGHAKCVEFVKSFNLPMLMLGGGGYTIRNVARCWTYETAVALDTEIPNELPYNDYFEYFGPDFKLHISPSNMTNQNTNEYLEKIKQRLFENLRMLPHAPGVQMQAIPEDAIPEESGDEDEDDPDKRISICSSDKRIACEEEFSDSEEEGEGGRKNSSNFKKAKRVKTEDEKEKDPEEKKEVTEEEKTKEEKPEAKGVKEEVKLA
T2 sequence (Q92769 whole entry): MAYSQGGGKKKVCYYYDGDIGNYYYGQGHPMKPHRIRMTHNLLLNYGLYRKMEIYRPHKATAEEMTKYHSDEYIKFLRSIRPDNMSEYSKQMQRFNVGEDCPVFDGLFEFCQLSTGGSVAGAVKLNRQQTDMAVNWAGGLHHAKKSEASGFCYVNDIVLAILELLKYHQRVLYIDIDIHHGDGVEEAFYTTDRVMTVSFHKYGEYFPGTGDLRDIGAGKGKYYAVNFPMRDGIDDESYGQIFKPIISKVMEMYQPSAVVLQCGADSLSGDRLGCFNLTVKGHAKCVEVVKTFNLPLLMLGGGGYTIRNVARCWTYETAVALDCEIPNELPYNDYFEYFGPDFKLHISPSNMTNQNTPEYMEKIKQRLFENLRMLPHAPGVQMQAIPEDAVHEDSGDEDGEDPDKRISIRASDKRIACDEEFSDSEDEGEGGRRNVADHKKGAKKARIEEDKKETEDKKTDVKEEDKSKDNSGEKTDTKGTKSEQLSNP
T1 sequence (O15379 whole entry): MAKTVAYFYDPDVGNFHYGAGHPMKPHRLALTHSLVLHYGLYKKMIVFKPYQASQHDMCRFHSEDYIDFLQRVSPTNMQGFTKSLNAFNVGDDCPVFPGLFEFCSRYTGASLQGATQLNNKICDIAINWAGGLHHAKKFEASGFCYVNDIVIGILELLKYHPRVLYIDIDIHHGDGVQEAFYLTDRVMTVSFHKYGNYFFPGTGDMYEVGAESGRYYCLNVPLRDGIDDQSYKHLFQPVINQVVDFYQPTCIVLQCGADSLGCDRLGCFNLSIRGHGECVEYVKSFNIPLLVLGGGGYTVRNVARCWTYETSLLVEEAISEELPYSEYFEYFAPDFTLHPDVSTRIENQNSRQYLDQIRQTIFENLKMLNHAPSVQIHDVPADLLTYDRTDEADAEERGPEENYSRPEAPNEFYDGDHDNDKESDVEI
T1 sequence (Q9Y618 395-489 partner limits assumed): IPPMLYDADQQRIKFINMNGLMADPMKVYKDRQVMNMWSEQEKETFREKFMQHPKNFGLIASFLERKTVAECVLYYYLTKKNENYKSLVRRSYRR

| Structure (SMILES) | IC50 (HDAC3/NcoR2) [nM] | IC50 (HDAC2) [nM] | IC50 (P. falciparum NF54) [nM] | IC50 (HepG2) [nM] | IC50 (HDAC1; [4]) [nM] | IC50 (Plasmodium falciparum; read-out: IC50 antiparasitic activity against Plasmodium falciparum) [nM] | IC50 (HDAC6; [5]) [nM] | IC50 (in vitro [1]) [nM] | IC50 cytotoxicity A549 (A549 (CCL-185)) | IC50 cytotoxicity HepG2 (HepG2 (HB-8065)) | IC50 (HDAC1) [nM] | IC50 (HDAC6) [nM] | Activity against Trypanosoma brucei rhodesiense STIB 900 [2] | IC50 (in vitro [3]) [nM] | IC50 (Plasmodium falciparum; read-out: IC50 in the P. falciparum assay) [nM] |
| --- | --- | --- | --- | --- | --- | --- | --- | --- | --- | --- | --- | --- | --- | --- | --- |
| COn1cc(C[C@@H]2NC(=O)[C@H](CCCCCC(=O)O)NC(=O)[C@H]3CCCCN3C(=O)[C@H](Cc3ccccc3)NC2=O)c2ccccc21 [Apicidin F (1), 6-[(3S,6S,9S,12R)-3-benzyl-6-[(1-methoxyindol-3-yl)methyl]-2,5,8,11-tetraoxo-1,4,7,10-tetrazabicyclo[10.4.0]hexadecane-9-yl]hexanoic acid] (cyclo([Asu][Trp(1-OMe)]F[dPip])) | 202 ± 26 | 164 ± 17 | 510 | 110000 | 102 ± 4 | 670 | 6380 ± 1570 | 63700 |  |  |  |  |  |  |  |
| COn1cc(C[C@@H]2NC(=O)[C@H](CCCCCC(=O)O)NC(=O)[C@H]3CCCN3C(=O)[C@H](Cc3ccccc3)NC2=O)c2ccccc21 [Apicidin J (2), 6-[(3S,6S,9S,12R)-3-benzyl-6-[(1-methoxyindol-3-yl)methyl]-2,5,8,11-tetraoxo-1,4,7,10-tetrazabicyclo[10.3.0]pentadecane-9-yl]hexanoate] (cyclo([Asu][Trp(1-OMe)]F[dP])) | 754 ± 112 | 633 ± 28 | 1100 |  | 342 ± 18 |  | 9870 ± 1400 | 46500 | no IC50 could be calculated | no IC50 could be calculated |  |  |  |  |  |
| COn1cc(C[C@@H]2NC(=O)[C@H](CCCCCCO)NC(=O)[C@H]3CCCCN3C(=O)[C@H](Cc3ccccc3)NC2=O)c2ccccc21 [Apicidin K (3), (3S,6S,9S,12R)-3-benzyl-9-(6-hydroxyhexyl)-6-[(1-methoxyindol-3-yl)methyl]-1,4,7,10-tetrazabicyclo[10.4.0]hexadecane-2,5,8,11-tetrone] |  |  | 1100 |  | > 3330 |  | > 10000 | 7200 |  |  |  |  |  |  |  |
| COn1cc(C[C@@H]2NC(=O)[C@H](CCCCCCO)NC(=O)[C@H]3CCCN3C(=O)[C@H](Cc3ccccc3)NC2=O)c2ccccc21 [Apicidin L (4), (3S,6S,9S,14aR)-9-benzyl-3-(6-hydroxyhexyl)-6-[(1-methoxy-1H-indol-3-yl)methyl]decahydropyrrolo[1,2-a][1,4,7,10]tetraazacyclododecine-1,4,7,10-tetraone] |  |  | 2100 |  |  |  |  | 20000 | no IC50 could be calculated | no IC50 could be calculated | > 10000 | > 10000 | no effect |  |  |
| CCC(=O)CCCCC[C@@H]1NC(=O)[C@H]2CCCCN2C(=O)[C@H]([C@@H](C)CC)NC(=O)[C@H](Cc2cn(OC)c3ccccc23)NC1=O [apicidin (5), apicidin] |  |  |  | 1300 |  |  |  |  |  |  |  |  |  | 2700 | 200 |
